Reference: EP3388419A1, “GLI1 INHIBITORS AND USES THEREOF” (Leadiant Biosciences SA, priority 2017, dated 2018)
“Also recorded” adds a separate entry of the source. Where two headings read alike, the source gives them in different places.

Legend:
[1] = test system: DAOY (medulloblastoma cell line); experiment: Cancer cell proliferation, MTT-based assay, DAOY; conditions: Homo sapiens, 72 h
Protocol: (§1) The effects on cancer cell proliferation were tested for those compounds shown to be able to reduce Gli1 protein level in NIH3T3 cells. Two different commercial cancer cell lines were used: A375 (metastatic melanoma cell line) and DAOY (medulloblastoma cell line).
(§2) To test the effects on cancer cell proliferation, both cell types were treated for 72 h with increasing doses (10 nM, 50 nM, 100 nM, 250 nM, 500 nM, 1 µM, 5 µM) of each compound and counted at the end of the treatment with an MTT-based assay. IC50 was calculated by GraphPad Prism software.

[2] = test system: A375 (metastatic melanoma cell line); experiment: Cancer cell proliferation, MTT-based assay, A375; conditions: Homo sapiens, A-375, A375, 72 h
Protocol: as §1, §2

Gli1 protein = experiment: Effect on Gli1 protein expression by Western blotting in SAG-stimulated NIH3T3 cells; assay type: cell-based, murine; set-up: key to Effect on Gli1 protein: +++: Gli1 protein level strongly reduced (almost abolished) at 24 and 48 h compared to DMSO control; ++: Gli1 protein level reduced (more than 50%) at 48 h compared to DMSO control; +: Gli1 protein level is weakly reduced (about 50%) at 48 h compared to DMSO control; conditions: compound 1 µM; for Effect on Gli1 protein: NIH3T3 cells stimulated with SAG (100nM), 24 or 48 h, compared to DMSO control; for Gli1 protein level: Figure 1, NIH3T3 cells, 48 h, reference GANT61 5 µM, result in words
Protocol: The effect of compounds on Gli1 protein expression was evaluated in HH-responsive murine NIH3T3 cells by Western blotting. Both Gli1 and Ptch1 are targets of the Gli, and Gli1 in particular is considered the best read-out of HH signaling activity.
Briefly, NIH3T3 were stimulated for 48 h with 3-chloro-N-[trans-4-(methylamino)cyclohexyl]-N-[[3-(4-pyridinyl)phenyl]methyl]-benzo[b]thiophene-2-carboxamide (SAG) (100nM) to activate the endogenous HH pathway, and treated for 24 or 48 h with each compound (1 µM). NIH3T3 cells were lysed and subjected to Western blotting using a specific anti-GLI1 antibody. The effect of each compound was compared to that of GANT61 (5 µM), a well known Gli1/2 inhibitor (Lauth M. et al. PNAS 2007, 104, 8455).

[3] = Table 3, commercially available compounds, read-out: Effect on proliferation DAOY (IC50; nM)
[4] = Table 3, commercially available compounds, read-out: Effect on proliferation A375 (IC50; nM)
[5] = Table 3, commercially available compounds
[6] = Table 2, new compounds, read-out: Effect on proliferation DAOY (IC50; nM)
[7] = Table 2, new compounds, read-out: Effect on proliferation A375 (IC50; nM)
[8] = Figure 2 dose-response curve, read-out: IC50

Row | Structure (SMILES) | IC50 [1, 3] | IC50 [2, 4] | IC50 [1, 6] | IC50 [2, 7] | IC50 [1, 8] | IC50 [2, 8] | Effect on Gli1 protein (Gli1 protein; [5]) | Gli1 protein level (Gli1 protein) | Effect on Gli1 protein (Gli1 protein; Table 2, new compounds)
1 | Clc1cc2c(c3ncccc13)OCN(CCC1=CCCCC1)C2 [SST0791AA1, 2H-Pyrido[3,2-h]-1,3-benzoxazine, 6-chloro-3-[2-(1-cyclohexen-1-yl)ethyl]-3,4-dihydro-] | ≤ 300 nM | ≤ 300 nM |  |  |  |  | ++ (Gli1 protein level reduced (more than 50%) at 48 h compared to DMSO control) |  | 
2 | Clc1cc2c(c3ncccc13)OCN(CCCN1CCOCC1)C2 [SST0792AA1, 2H-Pyrido[3,2-h]-1,3-benzoxazine, 6-chloro-3,4-dihydro-3-[3-(4-morpholinyl)propyl]-] | ≥ 1000 nM | ≤ 300 nM |  |  |  |  | + |  | 
3 | CCCCN1COc2c(cc(Cl)c3cccnc23)C1 [SST0793AA1, 2H-Pyrido[3,2-h]-1,3-benzoxazine, 3-butyl-6-chloro-3,4-dihydro-] | 300 to 1000 nM | 300 to 1000 nM |  |  |  |  | ++ (Gli1 protein level reduced (more than 50%) at 48 h compared to DMSO control) |  | 
4 | c1ccc(CCN2COc3c(ccc4cccnc34)C2)cc1 [SST0823AA1, 3-phenethyl-3,4-dihydro-2H-[1,3]oxazino[5,6-h]quinoline] |  |  | ≤ 300 nM | ≤ 300 nM |  |  |  | drastic reduction of Gli1 protein level; also recorded: abolish Gli1 protein level | +++
5 | O=C1Oc2c(ccc3cccnc23)C(c2ccc(Cl)cc2Cl)N1CCc1ccccc1 (stereo not shown) [SST0826AA1, 4-(2,4-dichlorophenyl)-3-phenethyl-3,4-dihydro-2H-[1,3]oxazino[5,6-h]quinolin-2-one] |  |  |  |  |  |  |  | slight reduction in Gli1 protein level | 
6 | Fc1cnc2c3c(ccc2c1)CN(CCc1ccccc1)CO3 [SST0891AA1, 8-fluoro-3-phenethyl-3,4-dihydro-2H-[1,3]oxazino[5,6-h]quinoline] |  |  | ≥ 1000 nM | ≥ 1000 nM |  |  |  | comparable to that obtained with GANT61 | +
7 | c1cnc2c3c(ccc2c1)CN(C1CCCCC1)CO3 [SST0892AA1, 3-cyclohexyl-3,4-dihydro-2H-[1,3]oxazino[5,6-h]quinoline] |  |  | 300 to 1000 nM | ≤ 300 nM | 500 nM | 300 nM |  | drastic reduction of Gli1 protein level; also recorded: abolish Gli1 protein level | +++
8 | c1ccc2c(c1)CCC(N1COc3c(ccc4cccnc34)C1)C2 (stereo not shown) [SST0893AA1, 3-(1,2,3,4-tetrahydronaphthalen-2-yl)-3,4-dihydro-2H-[1,3]oxazino[5,6-h]quinoline] |  |  | 300 to 1000 nM | 300 to 1000 nM |  |  |  |  | +
9 | COc1ccc(CN2COc3c(ccc4cccnc34)C2)cc1 [SST0910AA1, 3-(4-methoxybenzyl)-3,4-dihydro-2H-[1,3]oxazino[5,6-h]quinoline] |  |  | 300 to 1000 nM | 300 to 1000 nM |  |  |  |  | +
10 | c1cnc2c3c(ccc2c1)CN(CC1CCCCC1)CO3 [SST0912AA1, 3-(cyclohexylmethyl)-3,4-dihydro-2H-[1,3]oxazino[5,6-h]quinoline] |  |  | ≥ 1000 nM | 300 to 1000 nM |  |  |  |  | +
11 | c1cnc2c3c(ccc2c1)CN(C1CCCCCC1)CO3 [SST0913AA1, 3-cycloheptyl-3,4-dihydro-2H-[1,3]oxazino[5,6-h]quinoline] |  |  | ≥ 1000 nM | 300 to 1000 nM |  |  |  |  | +

More lines, main results first:

Row | IC50 [1, 3] | IC50 [2, 4] | IC50 [1, 6] | IC50 [2, 7] | IC50 [1, 8] | IC50 [2, 8] | Structure (SMILES) | Effect on Gli1 protein (Gli1 protein; [5]) | Gli1 protein level (Gli1 protein) | Effect on Gli1 protein (Gli1 protein; Table 2, new compounds)
12 | 300 to 1000 nM | 300 to 1000 nM |  |  |  |  | COc1ccc(C(NC(C)=O)c2cc(Cl)c3cccnc3c2O)cc1OC (stereo not shown) [SST0687AA1, N-[(5-Chloro-8-hydroxy-quinolin-7-yl)-(3,4-dimethoxy-phenyl)-methyl]-acetamide] | +++ |  | 
13 | 300 to 1000 nM | 300 to 1000 nM |  |  |  |  | CCCC(=O)NC(c1ccc(Cl)cc1Cl)c1cc(Cl)c2cccnc2c1O (stereo not shown) [SST0689AA1, N-[(5-Chloro-8-hydroxy-quinolin-7-yl)-(2,4-dichlorophenyl)-methyl]-butyramide] | +++ |  | 
14 | 300 to 1000 nM | 300 to 1000 nM |  |  |  |  | COc1ccc(C(NC(=O)C(C)C)c2cc(Cl)c3cccnc3c2O)cc1OC (stereo not shown) [SST0769AA1, Propanamide, N-[(5-chloro-8-hydroxy-7-quinolinyl)(3,4-dimethoxyphenyl)methyl]-2-methyl-] | ++ (Gli1 protein level reduced (more than 50%) at 48 h compared to DMSO control) |  | 
15 | 300 to 1000 nM | 300 to 1000 nM |  |  |  |  | CCCC(=O)NC(c1ccc(N(CC)CC)cc1)c1cc(Cl)c2cccnc2c1O (stereo not shown) [SST0771AA1, Butanamide, N-[(5-chloro-8-hydroxy-7-quinolinyl)[4-(diethylamino)phenyl]methyl]-] | +++ |  | 
16 | 300 to 1000 nM | 300 to 1000 nM |  |  |  |  | CCCC(=O)NC(c1ccc(C)cc1)c1cc(Cl)c2cccnc2c1O (stereo not shown) [SST0773AA1, Butanamide, N-[(5-chloro-8-hydroxy-7-quinolinyl)(4-methylphenyl)methyl]-] | + |  | 
17 | ≤ 300 nM | ≤ 300 nM |  |  |  |  | CCCCC(=O)NC(c1ccc(C(C)C)cc1)c1cc(Cl)c2cccnc2c1O (stereo not shown) [SST0774AA1, Pentanamide, N-[(5-chloro-8-hydroxy-7-quinolinyl)[4-(1-methylethyl)phenyl]methyl]-] | +++ |  | 
18 | 300 to 1000 nM | 300 to 1000 nM |  |  |  |  | CCCC(=O)NC(c1ccccc1Cl)c1cc(Cl)c2cccnc2c1O (stereo not shown) [SST0775AA1, Butanamide, N-[(5-chloro-8-hydroxy-7-quinolinyl)(2-chlorophenyl)methyl]-] | + |  | 
19 | ≤ 300 nM | ≤ 300 nM |  |  |  |  | CCCC(=O)NC(c1ccc(Cl)cc1Cl)c1ccc2cccnc2c1O (stereo not shown) [SST0776AA1, Butanamide, N-[(2,4-dichlorophenyl)(8-hydroxy-7-quinolinyl)methyl]-] | +++ |  | 
20 | 300 to 1000 nM | 300 to 1000 nM |  |  |  |  | CCCCC(=O)NC(c1ccc(OC)c(OC)c1)c1ccc2cccnc2c1O (stereo not shown) [SST0777AA1, Pentanamide, N-[(3,4-dimethoxyphenyl)(8-hydroxy-7-quinolinyl)methyl]] | +++ |  | 
21 | ≤ 300 nM | ≤ 300 nM |  |  |  |  | Clc1cc2c(c3ncccc13)OCN(CCc1ccccc1)C2 [SST0794AA1, 2H-Pyrido[3,2-h]-1,3-benzoxazine, 6-chloro-3,4-dihydro-3-(2-phenylethyl)-] | ++ (Gli1 protein level reduced (more than 50%) at 48 h compared to DMSO control) |  | 
22 |  |  | ≤ 300 nM | ≤ 300 nM |  |  | Oc1c(C(NCCc2ccccc2)c2ccc(Cl)cc2Cl)ccc2cccnc12 (stereo not shown) [SST0827AA1, 7-((2,4-dichlorophenyl)(phenethylamino)methyl)quinolin-8-ol] |  | drastic reduction of Gli1 protein level; also recorded: abolish Gli1 protein level | +++
